Test results as given in article PMC7615656 (European journal of pharmacology, 2010).

Tests used:
Experiment in all cases: Two-electrode voltage clamp of GABA-induced chloride currents in Xenopus oocytes
Type in all cases: cell-based
[1] = molecular target: recombinant rat α5β3γ2 receptors (Rattus norvegicus, UniProt P18508+P19969); details: α5β3γ2, ns = not significant
[2] = molecular target: recombinant rat α4β3γ2 receptors (Rattus norvegicus, UniProt P18508+P28471); details: α4β3γ2; for efficacy (% GABA EC3): ns = not significant
[3] = molecular target: recombinant rat α1β3γ2F77I receptors (Rattus norvegicus, UniProt P18508+P62813, F115I); details: α1β3γ2F77I; for efficacy (% GABA EC3): ns = not significant
[4] = molecular target: recombinant rat α5β3γ2F77I receptors (Rattus norvegicus, UniProt P18508+P19969, F115I); details: α5β3γ2F77I; for efficacy (% GABA EC3): ns = not significant
[5] = molecular target: recombinant rat α1β3γ2 receptors (Rattus norvegicus, UniProt P18508+P62813); details: α1β3γ2, ns = not significant
[6] = molecular target: recombinant rat α2β3γ2F77I receptors (Rattus norvegicus, UniProt P18508+P23576, F115I); details: α2β3γ2F77I; for efficacy (% GABA EC3): ns = not significant
[7] = molecular target: recombinant rat α3β3γ2F77I receptors (Rattus norvegicus, UniProt P18508+P20236, F115I); details: α3β3γ2F77I; for efficacy (% GABA EC3): ns = not significant
[8] = molecular target: recombinant rat α6β3γ2 receptors (Rattus norvegicus, UniProt P18508+P30191); details: α6β3γ2; for efficacy (% GABA EC3): ns = not significant
[9] = molecular target: recombinant rat α3β3γ2 receptors (Rattus norvegicus, UniProt P18508+P20236); details: α3β3γ2, ns = not significant
[10] = molecular target: recombinant rat α2β3γ2 receptors (Rattus norvegicus, UniProt P18508+P23576); details: α2β3γ2, ns = not significant

Chain of recombinant rat α6β3γ2 receptors (P30191 20-453): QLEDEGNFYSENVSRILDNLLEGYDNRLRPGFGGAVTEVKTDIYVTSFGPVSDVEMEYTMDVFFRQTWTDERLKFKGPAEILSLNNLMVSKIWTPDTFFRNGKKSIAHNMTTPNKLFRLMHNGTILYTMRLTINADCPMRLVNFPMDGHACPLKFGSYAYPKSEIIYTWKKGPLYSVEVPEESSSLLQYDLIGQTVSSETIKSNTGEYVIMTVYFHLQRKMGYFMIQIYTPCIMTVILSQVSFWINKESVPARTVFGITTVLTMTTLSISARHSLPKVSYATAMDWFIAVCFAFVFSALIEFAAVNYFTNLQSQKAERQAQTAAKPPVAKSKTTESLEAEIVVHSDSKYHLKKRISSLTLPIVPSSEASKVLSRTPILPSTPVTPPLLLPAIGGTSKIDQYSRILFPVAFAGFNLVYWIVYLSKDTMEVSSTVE
Chain of recombinant rat α6β3γ2 receptors (P63079 26-473 partner): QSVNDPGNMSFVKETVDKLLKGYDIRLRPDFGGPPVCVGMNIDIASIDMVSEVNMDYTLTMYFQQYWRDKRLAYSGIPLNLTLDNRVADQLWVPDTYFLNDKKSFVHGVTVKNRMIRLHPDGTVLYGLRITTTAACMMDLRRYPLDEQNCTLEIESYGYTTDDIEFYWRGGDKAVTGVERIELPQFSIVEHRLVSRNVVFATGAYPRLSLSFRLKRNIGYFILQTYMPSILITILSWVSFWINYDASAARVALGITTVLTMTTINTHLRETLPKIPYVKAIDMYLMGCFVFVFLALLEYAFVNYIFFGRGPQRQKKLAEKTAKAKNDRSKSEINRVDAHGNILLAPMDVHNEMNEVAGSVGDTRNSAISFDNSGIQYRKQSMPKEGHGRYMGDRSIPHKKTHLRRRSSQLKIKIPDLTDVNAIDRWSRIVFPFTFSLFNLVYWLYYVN
Chain of recombinant rat α6β3γ2 receptors (P18508 39-466): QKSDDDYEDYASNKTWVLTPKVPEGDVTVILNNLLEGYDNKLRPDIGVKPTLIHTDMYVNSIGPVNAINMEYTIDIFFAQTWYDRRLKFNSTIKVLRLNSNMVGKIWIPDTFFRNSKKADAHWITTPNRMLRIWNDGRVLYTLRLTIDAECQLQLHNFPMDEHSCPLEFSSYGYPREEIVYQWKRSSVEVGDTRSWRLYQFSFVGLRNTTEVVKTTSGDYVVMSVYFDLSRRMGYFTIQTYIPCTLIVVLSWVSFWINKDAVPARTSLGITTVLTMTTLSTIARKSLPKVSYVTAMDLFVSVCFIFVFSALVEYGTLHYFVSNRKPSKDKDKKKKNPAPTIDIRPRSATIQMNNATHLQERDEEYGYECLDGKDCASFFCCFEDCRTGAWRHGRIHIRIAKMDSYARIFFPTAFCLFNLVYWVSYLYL
Chain of recombinant rat α1β3γ2 receptors (P62813 28-455): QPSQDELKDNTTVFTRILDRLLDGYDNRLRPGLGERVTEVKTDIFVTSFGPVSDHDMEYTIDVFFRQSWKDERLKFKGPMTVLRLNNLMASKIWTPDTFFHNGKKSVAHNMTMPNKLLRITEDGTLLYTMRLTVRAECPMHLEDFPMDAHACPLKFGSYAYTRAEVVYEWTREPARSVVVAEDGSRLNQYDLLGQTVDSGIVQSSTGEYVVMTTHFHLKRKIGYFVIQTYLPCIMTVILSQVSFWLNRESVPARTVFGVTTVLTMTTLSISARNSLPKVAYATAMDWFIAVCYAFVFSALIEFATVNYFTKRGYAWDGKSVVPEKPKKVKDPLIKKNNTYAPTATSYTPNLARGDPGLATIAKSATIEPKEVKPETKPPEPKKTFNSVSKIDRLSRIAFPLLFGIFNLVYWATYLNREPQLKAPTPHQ
Chain of recombinant rat α1β3γ2 receptors (P63079 26-473 partner): as the sequence (P63079 26-473 partner) above
Chain of recombinant rat α1β3γ2 receptors (P18508 39-466): as the sequence (P18508 39-466) above
Chain of recombinant rat α1β3γ2F77I receptors (P62813 28-455): as the sequence (P62813 28-455) above
Chain of recombinant rat α1β3γ2F77I receptors (P63079 26-473 partner): as the sequence (P63079 26-473 partner) above
Chain of recombinant rat α1β3γ2F77I receptors (P18508 39-466 F115I): as the sequence (P18508 39-466) above, with F77I counted along it

## CN1C(=O)CN=C(c2ccccc2)c2cc(Cl)ccc21 [Diazepam, 7-chloro-1,3-dihydro-1-methyl-5-phenyl-2H-1,4-benzodiazepin-2-one]
[1]; 100 nM
  efficacy (% GABA EC3): 274 ± 16 % GABA EC3
[1]; 1 μM
  efficacy (% GABA EC3): 342 ± 21 % GABA EC3
[1]; 10 μM
  efficacy (% GABA EC3): 321 ± 14 % GABA EC3
[2]; 1 μM
  efficacy (% GABA EC3): ns
[2]; 10 μM
  efficacy (% GABA EC3): ns
[2]; control current = 100%
  maximal effect on GABA-induced chloride flux (GABA EC3), % of control current: did not stimulate
[3]; 100 nM
  efficacy (% GABA EC3): 162 ± 17 % GABA EC3
[3]; 1 μM
  efficacy (% GABA EC3): 220 ± 21 % GABA EC3
[3]; 10 μM
  efficacy (% GABA EC3): 229 ± 26 % GABA EC3
[3]
  efficacy for enhancing GABA EC3 in receptors containing the γ2F77I mutation: 229 ± 26%
[4]; 100 nM
  efficacy (% GABA EC3): 135 ± 7 % GABA EC3
[4]; 1 μM
  efficacy (% GABA EC3): 170 ± 4 % GABA EC3
[4]; 10 μM
  efficacy (% GABA EC3): 154 ± 2 % GABA EC3
[4]
  efficacy for enhancing GABA EC3 in receptors containing the γ2F77I mutation: 154 ± 2%
[5]; 100 nM
  efficacy (% GABA EC3): 239 ± 23 % GABA EC3
[5]; 1 μM
  efficacy (% GABA EC3): 314 ± 29 % GABA EC3
[5]; 10 μM
  efficacy (% GABA EC3): 324 ± 22 % GABA EC3
[6]; 100 nM
  efficacy (% GABA EC3): 181 ± 1 % GABA EC3
[6]; 1 μM
  efficacy (% GABA EC3): 265 ± 4 % GABA EC3
[6]; 10 μM
  efficacy (% GABA EC3): 278 ± 6 % GABA EC3
[6]
  efficacy for enhancing GABA EC3 in receptors containing the γ2F77I mutation: 278 ± 6%
[7]; 100 nM
  efficacy (% GABA EC3): 166 ± 17 % GABA EC3
[7]; 1 μM
  efficacy (% GABA EC3): 263 ± 39 % GABA EC3
[7]; 10 μM
  efficacy (% GABA EC3): 272 ± 36 % GABA EC3
[7]
  efficacy for enhancing GABA EC3 in receptors containing the γ2F77I mutation: 272 ± 36%
[8]; 1 μM
  efficacy (% GABA EC3): ns
[8]; 10 μM
  efficacy (% GABA EC3): ns
[8]; control current = 100%
  maximal effect on GABA-induced chloride flux (GABA EC3), % of control current: did not stimulate
[9]; 100 nM
  efficacy (% GABA EC3): 437 ± 32 % GABA EC3
[9]; 1 μM
  efficacy (% GABA EC3): 752 ± 48 % GABA EC3
[9]; 10 μM
  efficacy (% GABA EC3): 738 ± 36 % GABA EC3
[10]; 100 nM
  efficacy (% GABA EC3): 426 ± 22 % GABA EC3
[10]; 1 μM
  efficacy (% GABA EC3): 536 ± 26 % GABA EC3
[10]; 10 μM
  efficacy (% GABA EC3): 532 ± 20 % GABA EC3
